Reference: patent US11623919B2, “Heterocyclic P2X7 antagonists” (AXXAM S.P.A., priority 2017, dated 2023)

Key:
Format in all cases: cell-based
[1] = target: T1, P2X7 receptor (Homo sapiens, UniProt Q99572); test: Automated patch-clamp (QPatch16X) P2X7 channel assay; parameters: expressed in transfected cells; host or cells: HEK-293; conditions: HEK-293 cells expressing P2X7 channels; whole-cell, held at -80 mV; 100 microM BzATP; compound 1, 10, 100 and 1000 nM; read-out: Q-Patch (IC50)
T1 sequence (Q99572 1-595): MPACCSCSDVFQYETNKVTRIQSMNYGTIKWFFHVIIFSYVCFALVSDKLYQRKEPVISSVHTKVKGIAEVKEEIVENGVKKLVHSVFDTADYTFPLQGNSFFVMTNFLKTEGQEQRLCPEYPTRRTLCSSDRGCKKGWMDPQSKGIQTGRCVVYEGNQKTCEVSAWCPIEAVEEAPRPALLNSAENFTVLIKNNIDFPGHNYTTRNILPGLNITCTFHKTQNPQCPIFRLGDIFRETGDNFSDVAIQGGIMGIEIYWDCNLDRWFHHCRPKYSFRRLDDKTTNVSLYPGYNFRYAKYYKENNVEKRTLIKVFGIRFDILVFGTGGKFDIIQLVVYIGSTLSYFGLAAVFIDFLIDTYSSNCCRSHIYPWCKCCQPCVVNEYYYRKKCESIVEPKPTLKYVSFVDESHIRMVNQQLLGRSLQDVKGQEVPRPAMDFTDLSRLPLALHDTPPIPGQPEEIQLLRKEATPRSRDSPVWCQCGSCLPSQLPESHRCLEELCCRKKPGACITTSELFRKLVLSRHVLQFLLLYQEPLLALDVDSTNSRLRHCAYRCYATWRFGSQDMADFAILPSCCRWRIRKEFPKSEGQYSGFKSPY
Protocol: In order to directly monitor the block of P2X7 channel, an electrophysiological assay was developed and implemented on the QPatch16X automated electrophysiology instrument.
HEK-293 cells expressing the P2X7 channels were cultured in modified EMEM.
72 hours before experiment, 5 million cells were seeded onto T225 flasks. Just before the experiment cells were washed twice, detached from the flask with trypsin-EDTA, re-suspended in the suspension solution and placed on the QPatch 16x.
The compounds (20 mM in a 100% DMSO) stored at −20° C. were prepared the day of the experiment (a first dilution 1:20 in 100% DMSO to prepare a 1 mM stock solution, then a 1 microM solution in external solution+a serial dilution 1:10).
The standard whole-cell voltage clamp experiments were performed at room temperature. From these experiments the multihole technology was used and the data were sampled at 2 KHz.
The intracellular solution contained (mM) 135 CsF, 10 NaCl, 1 EGTA, 10 HEPES, (pH 7.2 with CsOH) whereas the extracellular contained (mM) 145 NaCl, 4 KCl, 0.5 MgCl2, 1 CaCl2, 10 HEPES, 10 Glc (pH 7.4 with NaOH).
After establishment of the seal and the passage in the whole cell configuration, the cells were held at −80 mV. The P2XR7 current was evoked by applying 100 microM of BzATP alone (4 times) and then in the presence increasing concentrations of the compound under investigation (1, 10, 100 and 1000 nM).
The pre-incubation periods 5 to 8 contain increasing concentrations of the compound of interest (1, 10, 100 and 1000 nM), as illustrated in FIGURE (application protocol).
The maximal inward current evoked by BzATP in absence or presence of increasing concentrations of the compounds under investigation was measured and normalized. The potential […] effect was measured as % of control and as IC50 determined fitting the dose-response curves data with the following equation: Y=100/(1+10^((Log IC50−X)*HillSlope))

[2] = target: T2, P2X7 receptor (Mus musculus, UniProt Q9Z1M0); test: Screen Quest Fluo-8 No Wash Calcium Assay (Bz-ATP evoked Ca2+ influx, FLIPR); conditions: mP2X7; HEK-293 cells stably transfected with P2X7 receptor, Bz-ATP at EC80, Fluo-8 NW; potency ranges A-D
T2 construct: mP2X7 (IC50; nM); other: mP2X7; HEK-293 cells stably transfected with P2X7 receptor, Bz-ATP at EC80, Fluo-8 NW; potency
T2 sequence (Q9Z1M0 1-595): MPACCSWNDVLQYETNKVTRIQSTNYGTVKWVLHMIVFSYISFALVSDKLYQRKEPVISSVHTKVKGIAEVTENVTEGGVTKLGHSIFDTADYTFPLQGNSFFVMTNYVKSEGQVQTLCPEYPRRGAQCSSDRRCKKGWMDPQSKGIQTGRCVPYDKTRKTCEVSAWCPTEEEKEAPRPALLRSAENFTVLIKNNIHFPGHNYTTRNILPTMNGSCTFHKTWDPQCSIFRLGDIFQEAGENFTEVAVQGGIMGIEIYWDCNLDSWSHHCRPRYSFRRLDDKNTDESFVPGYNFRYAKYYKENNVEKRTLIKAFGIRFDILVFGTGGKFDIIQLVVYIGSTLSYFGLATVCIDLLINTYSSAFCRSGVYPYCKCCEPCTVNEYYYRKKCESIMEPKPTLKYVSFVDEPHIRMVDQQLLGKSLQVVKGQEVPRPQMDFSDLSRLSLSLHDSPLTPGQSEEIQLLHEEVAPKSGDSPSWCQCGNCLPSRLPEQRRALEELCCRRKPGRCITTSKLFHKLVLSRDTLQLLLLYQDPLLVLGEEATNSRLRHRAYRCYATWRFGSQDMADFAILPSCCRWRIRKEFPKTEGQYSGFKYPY
Summary of the method: (§1)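 HEK-293 cells stably expressing P2X7 were loaded with Fluo-8 NW for 1 h at RT, then given compound, and 5 min later Bz-ATP at EC80. Fluorescence was read by FLIPR in low divalent cation buffer (0.3 mM Ca2+, 0 mM Mg2+). IC50 came from percent inhibition relative to reference antagonist A438079.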

[3] = target: T3, P2X7 receptor (Rattus norvegicus, UniProt Q64663); test: as above; conditions: rP2X7; HEK-293 cells stably transfected with P2X7 receptor, Bz-ATP at EC80, Fluo-8 NW; potency ranges A-D
T3 construct: rP2X7 (IC50; nM); other: rP2X7; HEK-293 cells stably transfected with P2X7 receptor, Bz-ATP at EC80, Fluo-8 NW; potency
T3 sequence (Q64663 1-595): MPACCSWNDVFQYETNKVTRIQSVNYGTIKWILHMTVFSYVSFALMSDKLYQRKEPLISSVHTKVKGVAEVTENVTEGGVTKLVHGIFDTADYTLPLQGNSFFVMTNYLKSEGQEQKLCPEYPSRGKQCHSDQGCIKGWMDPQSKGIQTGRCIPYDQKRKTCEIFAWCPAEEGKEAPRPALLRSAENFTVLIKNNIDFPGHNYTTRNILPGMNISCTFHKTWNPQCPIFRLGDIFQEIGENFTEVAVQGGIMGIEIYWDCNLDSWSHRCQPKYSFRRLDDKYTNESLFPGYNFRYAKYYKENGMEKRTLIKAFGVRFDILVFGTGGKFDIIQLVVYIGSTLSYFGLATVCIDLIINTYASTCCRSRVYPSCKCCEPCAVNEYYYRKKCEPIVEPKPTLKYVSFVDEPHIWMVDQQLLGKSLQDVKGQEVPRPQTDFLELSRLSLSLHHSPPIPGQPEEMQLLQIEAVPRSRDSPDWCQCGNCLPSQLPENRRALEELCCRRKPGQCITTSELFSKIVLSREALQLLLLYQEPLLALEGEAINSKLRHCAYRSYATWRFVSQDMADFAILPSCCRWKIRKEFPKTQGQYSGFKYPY
Summary of the method: as §1

[4] = target: T1, P2X7 receptor; test: as above; parameters: hP2X7 (IC50; nM); other: hP2X7; HEK-293 cells stably transfected with P2X7 receptor, Bz-ATP at EC80, Fluo-8 NW; potency; conditions: hP2X7; HEK-293 cells stably transfected with P2X7 receptor, Bz-ATP at EC80, Fluo-8 NW; potency ranges A-D
Summary of the method: as §1

IC50 [1]	IC50 [2]	IC50 [3]	IC50 [4]	Compound
355 nM	200 to 1000 nM	200 to 1000 nM	200 to 1000 nM	O=c1onc(Cc2c(F)cccc2Cl)n1Cc1cccc(Cl)c1Cl [Example 59, 3-[(2-chloro-6-fluorophenyl)methyl]-4-[(2,3-dichlorophenyl)methyl]-4,5-dihydro-1,2,4-oxadiazol-5-one]
391 nM	1000 to 10000 nM	200 to 1000 nM	1000 to 10000 nM	CC(c1ccccc1)n1c(Cc2c(F)cccc2Cl)noc1=O (centres unmarked) [Example 49, 3-[(2-chloro-6-fluorophenyl)methyl]-4-(1-phenylethyl)-4,5-dihydro-1,2,4-oxadiazol-5-one]
